Reference: US20230146455A1, “TREATMENT OF INFLAMMATORY DISEASES WITH PEPTIDES AND PHARMACEUTICAL COMPOSITIONS” (Yuyu Pharma, Inc., priority 2020, published 2023)
Values joined by “and” are separate entries in the source; they are usually repeats but may differ in a detail not shown here. Equal values may be shown once. Where a SMILES comes first, the peptide text is derived from it. [ ]: non-standard residue; d: D form. Hyp = O=C(O)[C@@H]1C[C@@H](O)CN1

System: IL-10
Experiment: Example 9 Luminex, LPS hPBMCs: IL-10
Format: cell-based, human
Conditions: for Concentration / conc/live cell (pg/10^5): IL-10
Protocol: Treatment Human PBMCs were pretreated with YY-101, YDE-011 and YDE-043 or reference compound; Xiidra® at various concentration (ranging from 1 nM to 100 uM) for 2 h before stimulation. An equal volume of 0.5% DMSO was used as a vehicle control. Then, the cells were treated with LPS at 5 ug/ml. The supernatants from treated cells were harvested at 24 h and placed in a 96 well for Luminex cytokine & chemokine profiling using a Luminex 200 multiplex assay (Luminex; R&D system, USA).
The main study arm with triplicate wells per group in a 24-well plate: • 1. Blank • 2. PBMC: 0.5% DMSO • 3. PBMC+LPS (5 ug/ml) • 4. PBMC+YY-101 100 uM • 5. PBMC+YY-101 10 uM • 6. PBMC+YY-101 1 uM • 7. PBMC+YY-101 0.1 uM • 8. PBMC+YY-101 0.01 uM • 9. PBMC+LPS (5 ug/ml)+Xiidra®100 uM • 10. PBMC+LPS (5 ug/ml)+Xiidra® 10 uM • 11. PBMC+LPS (5 ug/ml)+Xiidra® 1 uM • 12. PBMC+LPS (5 ug/ml)+Xiidra®0.1 uM • 13. PBMC+LPS (5 ug/ml)+Xiidra®0.01 uM • 14. PBMC+LPS (5 ug/ml)+Xiidra®0.001 uM • 15. PBMC+LPS (5 ug/ml)+YY-101 100 uM • 16. PBMC+LPS (5 ug/ml)+YY-101 10 uM • 17. PBMC+LPS (5 ug/ml)+YY-101 1 uM • 18. PBMC+LPS (5 ug/ml)+YY-101 0.1 uM • 19. PBMC+LPS (5 ug/ml)+YY-101 0.01 uM • 20. PBMC+LPS (5 ug/ml)+YY-101 0.001 uM • 21. PBMC+LPS (5 ug/ml)+YDE-011 100 uM • 22. PBMC+LPS (5 ug/ml)+YDE-011 10 uM • 23. PBMC+LPS (5 ug/ml)+YDE-011 1 uM • 24. PBMC+LPS (5 ug/ml)+YDE-011 0.1 uM • 25. PBMC+LPS (5 ug/ml)+YDE-011 0.01 uM • 26. PBMC+LPS (5 ug/ml)+YDE-011 0.001 uM • 27. PBMC+LPS (5 ug/ml)+YDE-043 100 uM • 28. PBMC+LPS (5 ug/ml)+YDE-043 10 uM • 29. PBMC+LPS (5 ug/ml)+YDE-043 1 uM • 30. PBMC+LPS (5 ug/ml)+YDE-043 0.1 uM • 31. PBMC+LPS (5 ug/ml)+YDE-043 0.01 uM • 32. PBMC+LPS (5 ug/ml)+YDE-043 0.001 uM
Multiplex assay was used to measure 30 cytokines and chemokines. The 1:2, 1:10 and 1:200 diluted cell supernatant and serial dilution of the standard were dispensed into a 96 well plate at 50 ul/well. Then, the pre-mixed cocktail of antibody-coated magnetic beads was dispensed at 50 ul/well and incubated at room temperature for 2 h in a horizontal orbital microplate shaker at 800±500 rpm. The beads were washed using a magnetic device to prevent loss. The biotin-antibody was dispensed in 50 ul of each well and incubated at room temperature for 1 h in a shaker at 800±500 rpm. After washing, streptavidin-PE was added at 50 ul/well and incubated at room temperature for 30 min in a shaker under the same conditions. Finally, after washing, wash buffer (100 ul/well) was added to the plate and incubated in a shaker for 2 min. The Luminex™ 200 setting were set according to the manufacturer's protocol. The data was calculated with a standard five-parameter logistic nonlinear regression analysis of the data (xPonent software 4.2, USA). The levels of cytokine/chemokine are normalized to the live cell counts (1×10^5 cells/mL) and presented as concentrations per mL (pg/mL or ng/mL).

[1] = PBMC + LPS(5 ug/ml) + test article 0.001 uM, Mean
[2] = PBMC + LPS(5 ug/ml) + test article 0.001 uM, single replicates
[3] = PBMC + LPS(5 ug/ml) + test article 0.01 uM, Mean
[4] = PBMC + LPS(5 ug/ml) + test article 0.01 uM, single replicates
[5] = PBMC + LPS(5 ug/ml) + test article 0.1 uM, Mean
[6] = PBMC + LPS(5 ug/ml) + test article 0.1 uM, single replicates
[7] = PBMC + LPS(5 ug/ml) + test article 1 uM, Mean
[8] = PBMC + LPS(5 ug/ml) + test article 1 uM, single replicates
[9] = PBMC + LPS(5 ug/ml) + test article 10 uM, Mean
[10] = PBMC + LPS(5 ug/ml) + test article 10 uM, single replicates
[11] = PBMC + LPS(5 ug/ml) + test article 100 uM, Mean
[12] = PBMC + LPS(5 ug/ml) + test article 100 uM, single replicates
[13] = PBMC + test article 0.01 uM, no LPS, Mean
[14] = PBMC + test article 0.01 uM, no LPS, single replicates
[15] = PBMC + test article 0.1 uM, no LPS, Mean
[16] = PBMC + test article 0.1 uM, no LPS, single replicates
[17] = PBMC + test article 10 uM, no LPS, Mean
[18] = PBMC + test article 10 uM, no LPS, single replicates
[19] = PBMC + test article 100 uM, no LPS, Mean
[20] = PBMC + test article 100 uM, no LPS, single replicates

CC(C)C[C@H](NC(=O)CNC(=O)[C@H](CC(=O)O)NC(=O)[C@H](CCC(N)=O)NC(=O)CNC(=O)[C@@H]1C[C@@H](O)CN1)C(=O)N[C@@H](C)C(=O)NCC(=O)N1CCC[C@H]1C(=O)N[C@@H](CCCCN)C(=O)O [YY-101] (H-[Hyp]GQDGLAGPK-OH; N-terminus and C-terminus assumed)
Concentration [1]: 479.4 pg/mL | conc/live cell (pg/10^5) [1]: 74.9 pg/10^5 | Concentration [2]: 501.5 pg/mL and 488.8 pg/mL and 447.9 pg/mL | conc/live cell (pg/10^5) [2]: 88.0 pg/10^5 and 68.9 pg/10^5 and 67.9 pg/10^5 | Concentration [3]: 499.9 pg/mL | conc/live cell (pg/10^5) [3]: 81.1 pg/10^5 | Concentration [4]: 492.8 pg/mL and 499.5 pg/mL and 507.4 pg/mL | conc/live cell (pg/10^5) [4]: 77.0 pg/10^5 and 83.2 pg/10^5 (2×) | Concentration [5]: 445.6 pg/mL | conc/live cell (pg/10^5) [5]: 76.6 pg/10^5 | Concentration [6]: 426.9 pg/mL and 459.4 pg/mL and 450.6 pg/mL | conc/live cell (pg/10^5) [6]: 68.9 pg/10^5 and 88.3 pg/10^5 and 72.7 pg/10^5 | Concentration [7]: 519.9 pg/mL | conc/live cell (pg/10^5) [7]: 80.1 pg/10^5 | Concentration [8]: 556.7 pg/mL and 484.8 pg/mL and 518.0 pg/mL | conc/live cell (pg/10^5) [8]: 88.4 pg/10^5 and 68.3 pg/10^5 and 83.6 pg/10^5 | Concentration [9]: 474.4 pg/mL | conc/live cell (pg/10^5) [9]: 72.3 pg/10^5 | Concentration [10]: 464.8 pg/mL and 537.1 pg/mL and 421.4 pg/mL | conc/live cell (pg/10^5) [10]: 77.5 pg/10^5 and 83.9 pg/10^5 and 55.4 pg/10^5 | Concentration [11]: 172.4 pg/mL | conc/live cell (pg/10^5) [11]: 29.9 pg/10^5 | Concentration [12]: 173.5 pg/mL and 168.6 pg/mL and 175.1 pg/mL | conc/live cell (pg/10^5) [12]: 27.5 pg/10^5 and 27.2 pg/10^5 and 35.0 pg/10^5 | Concentration [13]: 4.3 pg/mL | conc/live cell (pg/10^5) [13]: 0.5 pg/10^5 | Concentration [14]: 4.3 pg/mL | conc/live cell (pg/10^5) [14]: 0.0 pg/10^5 and 0.9 pg/10^5 | Concentration [15]: 4.3 pg/mL | conc/live cell (pg/10^5) [15]: 0.4 pg/10^5 | Concentration [16]: 4.3 pg/mL | conc/live cell (pg/10^5) [16]: 0.0 pg/10^5 and 0.7 pg/10^5 | conc/live cell (pg/10^5) (PBMC + test article 1 uM, no LPS, Mean): 0.0 pg/10^5 | conc/live cell (pg/10^5) (PBMC + test article 1 uM, no LPS, single replicates): 0.0 pg/10^5 | Concentration [17]: 12.6 pg/mL | conc/live cell (pg/10^5) [17]: 2.0 pg/10^5 | Concentration [18]: 23.2 pg/mL and 2.0 pg/mL | conc/live cell (pg/10^5) [18]: 3.6 pg/10^5 and 0.3 pg/10^5 | Concentration [19]: 8.2 pg/mL | conc/live cell (pg/10^5) [19]: 0.6 pg/10^5 | Concentration [20]: 8.2 pg/mL | conc/live cell (pg/10^5) [20]: 1.3 pg/10^5 and 0.0 pg/10^5 | LPS-induced IL-10 (in words) (LPS 5 ug/mL 24 hrs, 100 uM to 1 nM): significantly reduced

CC(C)C[C@H](NC(=O)[C@H](CCC(N)=O)NC(=O)CNC(=O)[C@@H]1C[C@@H](O)CN1)C(=O)NCC(=O)O [YDE-043] (H-[Hyp]GQLG-OH; N-terminus and C-terminus assumed)
Concentration [1]: 305.6 pg/mL | conc/live cell (pg/10^5) [1]: 62.5 pg/10^5 | Concentration [2]: 335.7 pg/mL and 298.3 pg/mL and 282.9 pg/mL | conc/live cell (pg/10^5) [2]: 76.3 pg/10^5 and 49.7 pg/10^5 and 61.5 pg/10^5 | Concentration [3]: 344.9 pg/mL | conc/live cell (pg/10^5) [3]: 65.7 pg/10^5 | Concentration [4]: 344.9 pg/mL and 362.6 pg/mL and 327.1 pg/mL | conc/live cell (pg/10^5) [4]: 76.7 pg/10^5 and 54.9 pg/10^5 and 65.4 pg/10^5 | Concentration [5]: 322.4 pg/mL | conc/live cell (pg/10^5) [5]: 59.9 pg/10^5 | Concentration [6]: 330.0 pg/mL and 312.8 pg/mL and 324.3 pg/mL | conc/live cell (pg/10^5) [6]: 66.0 pg/10^5 and 55.9 pg/10^5 and 57.9 pg/10^5 | Concentration [7]: 327.6 pg/mL | conc/live cell (pg/10^5) [7]: 62.1 pg/10^5 | Concentration [8]: 328.6 pg/mL and 312.8 pg/mL and 341.4 pg/mL | conc/live cell (pg/10^5) [8]: 56.7 pg/10^5 and 65.2 pg/10^5 and 64.4 pg/10^5 | Concentration [9]: 297.7 pg/mL | conc/live cell (pg/10^5) [9]: 55.2 pg/10^5 | Concentration [10]: 318.5 pg/mL and 277.0 pg/mL and 297.5 pg/mL | conc/live cell (pg/10^5) [10]: 61.3 pg/10^5 and 51.3 pg/10^5 and 53.1 pg/10^5 | Concentration [11]: 109.4 pg/mL | conc/live cell (pg/10^5) [11]: 17.4 pg/10^5 | Concentration [12]: 106.7 pg/mL and 112.1 pg/mL | conc/live cell (pg/10^5) [12]: 17.2 pg/10^5 and 17.5 pg/10^5
